In patent US12029682B2, “Spray ejector mechanisms and devices providing charge isolation and controllable droplet charge, and low dosage volume ophthalmic administration” (EYENOVIA, INC., priority 2012, dated 2024):
“Also recorded” adds a separate entry of the source.

Columns and labels:
glaucomatous beagles [1] = test: Intraocular pressure (IOP), TonoVet, in glaucomatous beagles; assay type: in vivo, beagle dog
glaucomatous beagles [2] = test: Ocular irritation observations in glaucomatous beagles; assay type: in vivo, beagle dog; conditions: 6 μl of 0.03% via spray ejector device, compared to traditional eye drop treatment
Protocol: Active drug delivery begins on study day eight. For five days, IOP and PD measurements are taken at 0900. Immediately after 0900 measurements (time 0), each animal receives 6 μl of generic latanoprost in its assigned eye with the ejector device, followed by a second dosing 3 minutes later of an additional 6 μl (to avoid overloading the conjunctival sac). The contralateral eye receives a clinical dose (one drop) of the same commercially-available topical drug from FDA approved container (positive control). The ejector device is checked for accuracy before and after every use (Table 1). Standard measurements continue throughout each day (at 0:30, 0:45, 1, 2, 7 hrs). Possible endpoints include, but are not limited to, excessive ocular irritation, ocular damage, or other illness and injury. […]
On study days 5-9, IOP and PD measurements were taken at approximately 0900 h (time 0). Immediately after these measurements, each animal received 6 μl of 0.03% bimatoprost in its assigned eye via the spray ejector device. The contralateral eye received a clinical dose (one drop) of the same commercially available topical drug from a traditional eyedropper (positive control). The spray ejector device was checked for accuracy before and after every use and required a 10% delivered dose accuracy in pretreatment. Standard measurements continued throughout each day at 0, 1, 2, 4, and 7 hours. Possible endpoints included, but were not limited to, excessive ocular irritation, ocular damage, and other illness or injury. No statistical crossover was utilized for this study.
Ophthalmic examinations (slit lamp with fluorescein and indirect ophthalmoscopy) were performed on the eyes of each animal prior to Study Day 1. Ocular findings were scored according to the McDonald-Shadduck Score System. Ocular findings were recorded using a standardized data collection sheet. Macroscopic observations were recorded in accordance with the Draize Scale for Scoring Ocular Lesions. Animals were assigned treatments based on basic randomization prior to study day one.
Following a 7 day rest period, the eye choice was reversed. Measurements of IOP, heart rate and pupil diameter (PD) were made at 0:15, 0:30, 0:45, 1, 2, 4, 7, and 18 hours in the primary and crossover study. A veterinary ophthalmologist evaluated each test subject before and after the study for evidence of ocular side effects.
Ophthalmic examinations (slit lamp with fluorescein and indirect ophthalmoscopy) were performed on the eyes of each animal prior to study day 1. Ocular findings were scored according to the McDonald-Shadduck score system and macroscopic observations were recorded in accordance with the Draize scale for scoring ocular lesions. Ocular findings were recorded using a standardized data collection sheet.

With `CCNC(=O)CCC/C=C\C[C@@H]1[C@@H](/C=C/[C@@H](O)CCc2ccccc2)[C@H](O)C[C@@H]1O` [bimatoprost] the “duration of the dose vs spray ejector device” value (glaucomatous beagles [1]; 0.03%, one drop by eyedropper) was “greater”, the “effectiveness at lowering/controlling IOP vs traditional therapy” value (glaucomatous beagles [1]; 6 μl of 0.03% once daily morning via spray ejector device vs one drop (26-30 μl)) was “as effective at lowering IOP and constricting the pupil as traditional therapy; also recorded: as effective at controlling IOP as is the traditional therapy” and the “IOP values vs baseline” value (glaucomatous beagles [1]; 6 μl of 0.03% via spray ejector device) was “lower than baseline”. For the same molecule, the irritation (glaucomatous beagles [2]) was “Markedly less irritation; also recorded: Lack of ocular irritation”.
